# Active and inactive are the calls of the source.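 How the source made its calls: active means compounds whose fitted half-maximal concentration in the cell-protection dose series is at or below a set limit; inactive means the rest.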
# System: H9c2 cardiomyocytes, 2-deoxyglucose stress, ATP luminescence, 2 h
# Experiment: H9c2 cell survival under 2-deoxyglucose stress – uHTS hits, dose response (AID 588780)
row,Structure (SMILES),IC50
1,O=C1c2ccccc2NC(c2ccc(Cl)cc2Cl)N1O (configuration not stated),35 µM (inactive)
2,O=C(COc1cccc2c1CCNC2=O)Nc1ccc(Cl)cc1,> 79 µM (inactive)
3,Nc1ccc2c(c1)[nH]c(=O)c1ccccc12,> 79 µM (inactive)
4,COC(=O)c1[nH]c2c(c1C)C(=O)CC(c1cc(OC)ccc1OC)C2 (configuration not stated),> 79 µM (inactive)
5,NC(=O)c1nsc(C(=O)N(Cc2ccco2)C(C(=O)NCc2ccccc2)c2ccc(O)cc2)c1N (configuration not stated),10.1 µM
6,COc1cc(NC(=O)c2ccco2)c(C(=O)OCC(=O)c2c[nH]c3ccccc23)cc1OC,7.59 µM
7,COc1ccc2[nH]c(=O)c(CN(c3ccccc3OC)S(=O)(=O)c3ccccc3)cc2c1,15.1 µM
8,Cc1cccc(NC(=O)c2nc[nH]c2C(=O)NCC(=O)OCc2ccccc2)c1,> 79 µM (inactive)
9,O=C1C2C3C=CC(CC3)C2C(=O)N1c1cccc(Br)c1 (configuration not stated),> 79 µM (inactive)
10,N#CC1(NC(=O)COC(=O)Cn2[nH]c(=O)c3ccccc3c2=O)CCCCC1,> 79 µM (inactive)
11,O=C(NCCN1CCOCC1)c1cnn2c(-c3ccccc3)cc(-c3ccccc3)nc12,18.5 µM
12,C[C@H](CO)N1C[C@H](C)[C@@H](CN(C)S(=O)(=O)c2cccs2)Oc2ccc(NC(=O)Nc3ccccc3)cc2C1=O,28.2 µM
13,O=C(c1cc(=O)[nH]c2ccccc12)N1CCN(S(=O)(=O)c2ccc3ccccc3c2)CC1,14.5 µM
14,COCCNC(=O)COC(=O)c1ccc(OCC(=O)Nc2ccccc2OC)c(OC)c1,22.9 µM
15,Cc1onc(-c2ccccc2)c1C(=O)NC(=S)NNC(=O)c1ccccc1O,37.2 µM (inactive)
16,O=C(CSc1nc2ccccc2c(=O)[nH]1)c1ccccc1,> 79 µM (inactive)
17,Cc1ccc2[nH]c(=O)c(CN(Cc3ccco3)S(=O)(=O)c3c(C)ccc4nsnc34)cc2c1,29.7 µM
18,O=c1[nH]nc(-c2ccc(NCCCO)c([N+](=O)[O-])c2)c2ccccc12,> 79 µM (inactive)
19,C=CCOC(=O)COc1ccc2c3c(c(=O)oc2c1)CCCC3,28.1 µM
20,COC(=O)c1[nH]c2ccccc2c1NC(=O)CNC1CCCCC1,> 79 µM (inactive)
21,CCOC(=O)c1cc(-c2nnc(-c3cc(OC)c(OC)c(OC)c3)o2)c(C)nc1C,> 79 µM (inactive)
22,Brc1ccc(-c2ccc(/C=N/Nc3nc(N4CCOCC4)nc(N4CCOCC4)n3)o2)cc1,> 79 µM (inactive)
23,COc1ccc(OC)c(NC(=O)c2sc3ncnc(N4CCN(c5ccccn5)CC4)c3c2C)c1,> 79 µM (inactive)
24,O=C(Nc1cccc(/C=C/c2ccccn2)c1)c1ccc(-n2cncn2)cc1,42.9 µM (inactive)

row,Structure (SMILES),IC50
1,CCOC(=O)N1CCc2c(sc(NC(=O)CN3CCOCC3)c2C(=O)Nc2ccccc2)C1,54.6 µM (inactive)
2,CC(=O)c1ccc(-c2ccc(C(=O)Nc3nc(-c4ccccn4)cs3)o2)cc1,44.7 µM (inactive)
3,O=C(COc1cccc2c1CCNC2=O)Nc1cccc(F)c1,28 µM
4,CS(=O)(=O)N(Cc1ccc(C(=O)NCCSc2ccccn2)cc1)c1ccccc1,> 79 µM (inactive)
5,COc1ccc(Nc2nc(Nc3ccc(OC)cc3OC)nc(N3CCN(C)CC3)n2)c(OC)c1,43.4 µM (inactive)
6,Cc1nc(NC(=O)c2cc3c(C)nn(-c4ccccc4)c3s2)sc1C(=O)Nc1ccccc1,> 79 µM (inactive)
7,COc1cccc(Nc2nc(-c3sc(NC(=O)c4ccco4)nc3C)cs2)c1,> 79 µM (inactive)
8,Cc1ccc(NC(=O)CCc2nc3ccccc3c(=O)[nH]2)cc1S(=O)(=O)N1CCOCC1,> 79 µM (inactive)
9,O=c1c(O)c(-c2cccs2)oc2ccc(Cl)cc12,20.6 µM
10,COc1cc(NC(=O)c2c(OC)cccc2OC)ccc1NC(=O)c1cc2ccccc2o1,12.7 µM
11,Nc1nc(-c2c[nH]c3ccccc23)cs1,> 79 µM (inactive)
12,CCCc1cc(N2CCN(C(=O)c3ccco3)CC2)n2c(nc3ccccc32)c1C#N,21.4 µM
13,C#Cc1cc(N2CCN(C(=O)c3ccoc3)CC2)n2nc(-c3cccc(Cl)c3)cc2n1,> 79 µM (inactive)
14,Cc1ccc(NC(=O)c2cc(-c3cccs3)nc3ccccc23)nc1,9.88 µM
15,COc1ccc(NC(=O)N(CCCN(C)C)Cc2cc3cc(OC)ccc3[nH]c2=O)cc1,> 79 µM (inactive)
16,CCCC(c1nnnn1C(C)(C)CC)N(CCCO)Cc1cc2cc(C)cc(C)c2[nH]c1=O (configuration not stated),> 79 µM (inactive)
17,COc1cc(NC(=O)c2ccc(-c3cn[nH]c3)c3ccoc23)cc(OC)c1OC,10.4 µM
18,COc1ccc(/C=N/NC(=O)c2cccnc2)cc1CSc1nc2ccccc2s1,12.2 µM
19,N#C/C(=C\Nc1ccc2c(c1)OCCO2)c1nc2ccccc2[nH]1,> 79 µM (inactive)
20,O=C(Nc1cccc(-c2nc3cccnc3s2)c1)c1ccco1,> 79 µM (inactive)
21,O=C1c2ccccc2NC(c2cn[nH]c2-c2ccccc2)N1O (configuration not stated),> 79 µM (inactive)
22,CN(CC1COc2ccccc2O1)c1nc(-c2cccnc2)nc2ccccc12 (configuration not stated),> 79 µM (inactive)
23,COc1ccc(-c2cc(NC=O)c3ncc(-c4cccc(C(C)=O)c4)n3c2)cc1,> 79 µM (inactive)
